Reference: patent publication US9359378B2, “Substituted oxazolo[3,4-a]pyrazines as pharmaceutcals” (BIOLAB SANUS FARMACÊUTICA LTDA., priority 2014, dated 2016)

Legend:
Assay type in all cases: biochemical
Details in all cases: human recombinant enzyme (Sf9); FIGS. 14 and 15; test concentration not given
[1] = target: T1, PDE11A4 (Homo sapiens, UniProt Q9HCR9); assay: PDE11A4 enzyme inhibition (HTRF, cAMP substrate)
T1 construct: host or cells: Sf9
Excerpt: (§1) The effects of the BL-230 and BL-236 compounds on the activity of the human enzymes PDE2A1, PDE3A, PDE4A1A, PDE4B1, PDE7A, PDE8A1, and PDE10A2 and PDE11A4 were quantified by measuring the production of adenosine 5′-monophosphate (5′AMP) from cyclic adenosine monophosphate (cAMP), with human recombinant enzyme expressed in Sf9 cells and the detection method was by using HTRF®.
(§2) The test compound, the reference compound or water (control) were mixed with the enzyme (the enzymes and their amounts used are described in Table 1) in a buffer containing 44.4 mM Tris-HCl, 5.28 mM MgCl2, 2.64 mM DTT and 0.044% Tween® 20 (pH 7.8). Then, the reaction was initiated by the addition of 40 nM of cAMP substrate and the mixture was incubated for 30 minutes at room temperature. For basal control measurements, the enzyme was omitted from the reaction mixture. The fluorescence acceptor (Dye2 labeled cAMP) and fluorescence donor (anti-cAMP antibody labeled with europium cryptate) were added in the presence of 1 mM IBMX. After 60 minutes, the fluorescence corresponding to the amount of transfer residual cAMP was measured at λex=337 nm, λem=620 nm and λem=665 nm using a microplate reader (RubyStar, BMG). The enzyme activity was determined by the signal division measured at 665 nm, by the measured signal at 620 nm (right). The results were expressed as a inhibition percentage of the control enzyme activity. […]

[2] = target: T2, PDE4A1A (Homo sapiens, UniProt P27815); assay: PDE4A1A enzyme inhibition (HTRF, cAMP substrate)
T2 construct: host or cells: Sf9
Excerpt: as §1, §2

[3] = target: T3, PDE1B (Homo sapiens, UniProt Q01064); assay: PDE1B enzyme inhibition (HTRF, cGMP substrate)
T3 construct: host or cells: Sf9
Protocol: The effects of BL-230 and BL-236 compounds on the activity of PDE1B human enzymes were quantified by measuring the production of guanosine 5′-monophosphate (5′GMP) from cyclic guanosine monophosphate (cGMP), using human recombinant enzyme expressed in Sf9 cells, and the detection method was by using HTRF® (Homogeneous Time Resolved Fluorescence Technology).
The test compound, the reference compound or the water (control) were mixed with 0.07 U from the enzyme PDE1B in a buffer containing 44.4 mM Tris-hydroxymethyl aminomethane hydrochloride (Tris-HCl), 5.28 mM magnesium chloride (MgCl2), 0.88 mM calcium chloride (CaCl2), 2.64 mM dithiothreitol (DTT) and 0.198 U of calmodulin and 0.044% polysorbate 20 (Tween® 20) (pH 7.8). […] The fluorescence acceptor (Dye2 labeled cGMP) and fluorescence donor (anti-cGMP antibody labeled with europium cryptate) were added in the presence of 1 mM 3-isobutyl-1-methylxanthine (IBMX). After 60 minutes, the transfer of fluorescence corresponding to the amount of residual cGMP was measured at λex=337 nm, λem=620 nm and λem=665 nm using a microplate reader (RubyStar, BMG). The enzyme activity was determined by the signal division measured at 665 nm, by the measured signal at 620 nm (right). The results were expressed as a inhibition percentage of the control enzyme activity. […]

T2 sequence (P27815 1-647 isoform P27815-4): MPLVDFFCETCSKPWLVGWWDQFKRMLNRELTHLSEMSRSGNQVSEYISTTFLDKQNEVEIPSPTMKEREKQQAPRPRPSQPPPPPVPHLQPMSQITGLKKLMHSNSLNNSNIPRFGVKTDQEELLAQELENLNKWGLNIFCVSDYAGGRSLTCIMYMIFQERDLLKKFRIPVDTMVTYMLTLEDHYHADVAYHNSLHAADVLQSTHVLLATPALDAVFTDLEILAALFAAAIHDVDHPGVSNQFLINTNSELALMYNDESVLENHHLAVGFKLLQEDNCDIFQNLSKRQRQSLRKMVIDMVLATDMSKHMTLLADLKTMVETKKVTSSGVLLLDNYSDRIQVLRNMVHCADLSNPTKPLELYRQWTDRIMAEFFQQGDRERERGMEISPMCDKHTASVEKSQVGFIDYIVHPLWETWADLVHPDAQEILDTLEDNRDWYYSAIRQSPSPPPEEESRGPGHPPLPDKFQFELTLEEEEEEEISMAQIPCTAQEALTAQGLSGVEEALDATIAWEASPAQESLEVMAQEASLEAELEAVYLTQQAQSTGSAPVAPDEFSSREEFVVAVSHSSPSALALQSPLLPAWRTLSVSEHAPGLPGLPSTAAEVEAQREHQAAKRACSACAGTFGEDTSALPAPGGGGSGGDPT
T1 sequence (Q9HCR9 whole entry): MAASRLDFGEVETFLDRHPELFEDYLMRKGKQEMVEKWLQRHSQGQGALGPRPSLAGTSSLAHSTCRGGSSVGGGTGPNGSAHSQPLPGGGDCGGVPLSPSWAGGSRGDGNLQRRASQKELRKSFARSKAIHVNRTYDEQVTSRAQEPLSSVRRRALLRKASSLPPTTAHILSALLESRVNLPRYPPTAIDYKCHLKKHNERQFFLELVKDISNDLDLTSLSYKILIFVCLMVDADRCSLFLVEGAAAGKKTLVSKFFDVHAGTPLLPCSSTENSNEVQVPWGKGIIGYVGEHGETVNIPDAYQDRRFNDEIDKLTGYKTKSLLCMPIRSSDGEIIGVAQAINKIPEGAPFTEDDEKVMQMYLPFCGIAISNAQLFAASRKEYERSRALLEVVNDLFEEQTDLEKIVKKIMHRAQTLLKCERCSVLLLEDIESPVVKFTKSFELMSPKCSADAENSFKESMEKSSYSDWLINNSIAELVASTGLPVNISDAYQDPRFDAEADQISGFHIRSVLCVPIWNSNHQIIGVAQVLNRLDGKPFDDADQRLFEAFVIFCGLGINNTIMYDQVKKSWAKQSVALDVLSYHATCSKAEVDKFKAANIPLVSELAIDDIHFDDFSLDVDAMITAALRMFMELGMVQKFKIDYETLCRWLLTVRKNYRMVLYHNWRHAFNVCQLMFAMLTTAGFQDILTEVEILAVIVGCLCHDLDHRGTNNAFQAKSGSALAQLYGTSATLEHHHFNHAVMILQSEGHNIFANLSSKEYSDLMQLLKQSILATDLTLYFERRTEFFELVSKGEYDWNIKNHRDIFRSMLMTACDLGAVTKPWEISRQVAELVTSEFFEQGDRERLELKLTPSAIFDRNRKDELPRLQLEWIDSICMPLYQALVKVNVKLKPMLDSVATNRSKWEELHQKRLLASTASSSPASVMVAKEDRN

SMILES | inhibition of PDE11A4 enzyme activity [1] | inhibition of PDE4A1A enzyme activity [2] | inhibition of PDE1B enzyme activity [3]
C[C@@H](CO)N1CC(=O)N2C(=C(c3c[nH]c4ccccc34)OC2c2ccc3c(c2)OCO3)C1=O (stereo partly drawn) [BL-236, 3-(benzo[d][1,3]dioxol-5yl)-7-((S)1-hydroxypropan-2yl)-1-(1H-indol-3-yl)-6,7-dihydro-3H-oxazolo[3,4-a]pyrazine-5,8-dione] | 80% | did not inhibit | did not inhibit
O=C1C2=C(c3c[nH]c4ccccc34)OC(c3ccc4c(c3)OCO4)N2C(=O)CN1CCO (stereo not drawn) [BL-230, 3-(benzo[d][1,3]dioxol-5yl)-7-(2-hydroxyethyl)-1-(1H-indol-3-yl)-6,7-dihydro-3H-oxazolo[3,4-a]pyrazine-5,8-dione] | 75% | did not inhibit | did not inhibit
